Data on seven compounds can be found in BindingDB's records for doi:10.7270/Q20V8B80 (The Scripps Research Institute Molecular Screening Center, 2011).

SMILES strings stand for the structures.

The test addresses T1, Caspase-7 (Homo sapiens, UniProt P55210).
T1 sequence (P55210 whole entry): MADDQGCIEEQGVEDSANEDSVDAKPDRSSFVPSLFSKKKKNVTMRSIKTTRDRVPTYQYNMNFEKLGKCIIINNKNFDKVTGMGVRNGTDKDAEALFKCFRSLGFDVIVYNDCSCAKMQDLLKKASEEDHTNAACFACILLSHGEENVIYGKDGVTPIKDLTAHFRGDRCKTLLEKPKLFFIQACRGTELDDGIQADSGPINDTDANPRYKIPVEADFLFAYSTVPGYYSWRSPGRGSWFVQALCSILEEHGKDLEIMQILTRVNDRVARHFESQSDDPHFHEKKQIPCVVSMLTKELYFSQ
The experiment in a line: procaspase-7 activators, dose response, dual procaspase-3/-7 activator project, biochemical, absorbance, human (AID 504330).
Compound `CCOC(=O)C(C#N)C=Nc1cc(OC)ccc1OC` (configuration not stated) [(E)-2-Cyano-3-(2,5-dimethoxy-phenylamino)-acrylic acid ethyl ester] registered a half-maximal effective concentration (EC50) greater than 85.3 µM.

`COC(=O)c1[nH]n(-c2ccc(Cl)cc2)c2c(O)n(-c3ccccc3OC)c(=O)c1-2` [1-(4-Chloro-phenyl)-5-(2-methoxy-phenyl)-4,6-dioxo-1,3a,4,5,6,6a-hexahydro-pyrrolo[3,4-c]pyrazole-3-carboxylic acid methyl ester] returned an EC50 greater than 85.3 µM.

For `Cc1[nH]nc2c1C(c1c[nH]c3ccccc13)C(C#N)C(=N)O2` (configuration not stated) [MLS001030009], it took 27.8 µM to reach a half-maximal effect (EC50).

Turning to `CCOc1ccc(NC=C2C(=O)CC(c3ccco3)CC2=O)cc1` (configuration not stated) [SMR000268302], the EC50 is greater than 85.3 µM.

Compound `C=CC=Nc1c(Cl)c(O)n(-c2cccc(Cl)c2Cl)c1O` [MLS000533809] gave a concentration giving a half-maximal response (EC50) greater than 85.3 µM.

The compound `O=C(c1ccccc1)c1[nH]n(-c2ccccc2)c2c(O)n(-c3ccccc3)c(=O)c1-2` [3-benzoyl-1,5-diphenyl-3a,6a-dihydropyrrolo[3,4-c]pyrazole-4,6-dione] registered an EC50 greater than 85.3 µM.

The compound `COc1ccccc1-n1c(O)c2n(-c3ccccc3)[nH]c(C(=O)c3ccccc3)c-2c1=O` displayed a half-maximal effective concentration (EC50) greater than 85.3 µM.
